According to patent publication US20240181000A1, “LGG-DERIVED PEPTIDES AND METHODS OF USE THEREOF” (Ohio State Innovation Foundation, priority 2021, published 2024):
No end group written: not given here.

How the values were obtained:
biofilm protected APEC = assay: MBEC-HTP assay; type: cell-based, E. coli; details: at MICs, 18 h; untreated 7.54 ± 0.07
Procedure: MBEC™-HTP assay: To test the efficacy of the peptides (P1, P2, and P3) against biofilm protected APEC, Innovotech's MBEC Assay® was conducted as described previously(27). Briefly, 150 μL of 0.05 OD600 (5×10^7 CFU/mL) adjusted APEC suspension in LB media was aliquoted into the wells of MBEC™ device containing polystyrene pegs and incubated for 36 h on a rocker platform at 37° C. to allow the biofilm formation. After biofilm formation, the pegs were washed to remove loosely adherent planktonic bacteria and transferred to a new 96-well plate (challenge plate) containing peptides at MICs in 200 μL diluted (25%) LB media. The diluted LB media mimics the minimal media which stimulates biofilm formation and maintenance. The plate was incubated for 18 h at 37° C. with rotation at 150 rpm. Sterile media and DMSO (solvent) were used as controls. Following incubation, the MICs of peptides in challenge plate were recorded. The peptides exposed pegs were transferred to new 96-well plate containing PBS and sonicated for 30 mins to disrupt the biofilm. The sonicated suspensions were then ten-fold serially diluted and plated on LB agar plates to enumerate the biofilm protected bacteria and the minimum biofilm eradication concentration (MBEC) of peptides were determined. Three independent experiments were conducted.

[1] = tested on: intracellular APEC O78 in HD11 cells; assay: Intracellular survival of APEC in HD11 cells (gentamicin protection assay); type: cell-based, chicken
Procedure: Effect of peptides on intracellular survival of APEC in HD11 cells: To determine the efficacy of peptides (P1, P2, and P3) against intracellular APEC, gentamicin protection assay was conducted in HD 11 (chicken macrophage) cells as described previously. The cells were cultured in Iscove's Modified Dulbecco's Media (IMDM) supplemented with 10% fetal bovine serum (FBS), 2 mM L-glutamine and 2% penicillin-streptomycin (P/S) solution and maintained at 37° C. incubator with 5% C02. Cells (approximately 10^4 cells/well) were seeded in a 96-well cell culture plate in 100 μL culture media and incubated for 36 h prior to using for the assay. Following incubation, the cells were replenished with 100 μL of fresh cell culture media with no FBS and antibiotic and incubated until infection (2 h). For the infection, the overnight grown APEC O78 was subcultured to mid-logarithmic phase, centrifuged, washed twice with PBS, adjusted to 1×10^7 CFU/mL. One-hundred microliters of the APEC suspension (MOI: 100) was added to each well of the 96-well plate and incubated for 1 h to allow the invasion. The cells were washed twice and treated with gentamicin (150 μg/mL) to kill the extracellular APEC. The cells were treated with peptides at 12 mM, 15 mM, and 18 mM concentrations. Infected but not treated, infected and DMSO-treated, and non-infected and not treated cells were used as controls. Three independent experiments were conducted.

APEC O78 = assay: Efficacy of peptides in chickens (oral, twice a day); type: in vivo; details: for Reduction of APEC colonization in cecum: 7 dpi
Procedure: Peptides were administered through orally twice a day from day 1 to day 7 either at 50 mg/kg or 100 mg/kg dose. On day 2, chickens were infected orally with Rif^γ APEC O78 (1-2×10^9 CFU/chicken). At day 9, chickens were euthanized, necropsied and cecum and internal organs (lung, liver, heart, and kidney) were processed for quantification of APEC load. The body weight of chickens was measured at day 9.
Efficacy of peptides in chickens: Animal study was approved by The Ohio State University Institutional Animal Care and Use Committee (IACUC, protocol #2010 A00000149). Chickens were euthanized using CO2 following American Veterinary Medical Association (AVMA) guidelines. Standard animal husbandry practices were followed throughout the experiment. Feed and water were provided ad libitum. The efficacy of peptides (P1, P2, and P3) were assessed at 50 mg/kg and 100 mg/kg doses in two successive experiments using commercial broiler chickens (n=10/group) (Cobb & Ross; Case Farms Ohio Hatchery, Strasburg, OH). […] Briefly, peptides dissolved in water [5 mg (50 mg/kg) or 10 mg (100 mg/kg) in 100 μL] were administered orally twice a day from day 1 (one day before APEC infection) today 7 (5 days post-infection; dpi). On day 2, chickens were infected orally with rifampicin resistant (Rif) APEC O78(27) (1-2×10^9 CFU/chicken). At 7 dpi (day 9), chickens were euthanized, necropsied and cecum and internal organs (lung, liver, heart, and kidney) were assessed for APEC load by plating on MacConkey agar plates containing 50 μg/mL rifampicin. The body weight of chickens was measured at the day of necropsy (day 9). The positive (PC; infected but not treated) and negative (NC; non-infected and non-treated) control chickens were included in both experiments. The statistical significance (P<0.05) of treatment on reduction of APEC load and effect on body weight was calculated using one-way ANOVA followed by Tukey's post-hoc test. […] Bacteria were grown in LB media and MICs were determined as above against respective peptides.

ST membrane = assay: Confocal microscopy (bacterial cytological profiling); type: cell-based, Salmonella enterica; details: 5×MIC, 3 h
Procedure: Mode of action of peptides analyzed through confocal microscopy: To determine the mode of action of P1 and P2, bacterial cytological profiling was conducted using confocal microscopy as described in. […] Incubated bacteria cultures were then centrifuged and re-suspended in 100 μL sterile water. Following suspension, 1 μg/mL of FM4-64 (Invitrogen™ Molecular Probes™) and 5 μM Syto-9 (Invitrogen™ Molecular Probes™) stains were added and incubated for 45 mins […] with 150 rpm. After incubation, the samples were centrifuged, and bacteria was re-suspended in 10 μl sterile water. For microscopic analysis, 3 μL of bacterial suspension was added to glass slides with 1.2% agar and 20% LB media. Untreated ST bacterial culture was used as a control. Leica TCS SP6 confocal scanning microscope (Excitation/emission (nm); FM4-64 (515/640), SYTO-9 (485/498) was used at the Ohio State University's Molecular and Cellular Imaging Center (MCIC; mcic.osu.edu/microscopy).

Substance: PDENK [Peptide P2, PDENK]
- Biofilm protected APEC (log CFU/mL) (biofilm protected APEC): 0.00 ± 0.00 log CFU/mL
- Intracellular APEC (log CFU/mL) ([1]; 12 mM, untreated 3.75 ± 0.10): 3.33 ± 0.03 log CFU/mL
- Intracellular APEC (log CFU/mL) ([1]; 15 mM): No intracellular APEC was recovered
- Intracellular APEC (log CFU/mL) ([1]; 15 mM, listed as P-2): 0.00 ± 0.00 log CFU/mL
- Intracellular APEC (log CFU/mL) ([1]; 18 mM): 0.00 ± 0.00 log CFU/mL
- Reduction of APEC colonization in cecum (APEC O78; 50 mg/kg dose): 0.9 logs
- Number of chickens positive for APEC in internal organs (APEC O78; 100 mg/kg dose): reduced the number of chickens positive for APEC
- Reduction of APEC colonization in cecum (APEC O78; 100 mg/kg dose): 1.3 logs
- ST membrane in confocal microscopy (FM4-64 stain) (ST membrane): little to no red stain present
